We go through 21 molecules from patent publication US20260199485A1, “RNA DEGRADERS AND USES THEREOF” (Arrakis Therapeutics, Inc., priority 2022, published 2026).

Usually Kd stands for the free concentration of one partner at which half of the binding sites on the other are occupied at equilibrium, for simple one-to-one binding.

SMILES strings stand for the structures. A value given as a limit tells only on which side of the number the result lay.

Assay [1] addresses T1, CNOT7 (Homo sapiens, UniProt Q9UIV1).
T1 construct: biotin (biotinylated); purchased Ichor Life Sciences
Briefly: Binding of compounds to CNOT7 by surface plasmon resonance (SPR). As for the experimental part: Surface plasmon resonance (SPR) was used to evaluate the binding of compounds to CNOT7. Experiments were performed on a Biacore 8K (Cytiva) with a running buffer consisting of 20 mM HEPES pH7.5, 100 mM KCl, 3 mM MgCl2, 1 mM TCEP, 0.05% tween-20, 2% DMSO. Briefly, biotinylated CNOT7 (Ichor Life Sciences) at a concentration of 70 μg/ml was immobilized to a streptavidin coated chip (Cytiva sensor chip SA) for 1200 sec at a flow rate of 5 μl/min (typical immobilization level 7,500 RU). For compound binding experiments, various concentrations of analyte were flowed over the chip with 120 sec association phase, 120 sec dissociation phase, at a flow rate of 30 ul/min and collection rate of 10 Hz. Reference channel subtraction and solvent correction were applied to all sensograms prior to data analysis. Sensograms were fit to 1:1 steady state affinity model. FIGS. 3 and 4 show the binding of exemplary compounds and the AMP control (a known CNOT7 active site binder) at various concentrations to CNOT7.
A general note: In SPR one partner is held on a chip, and binding of the other changes the refractive index at the surface.

The target in assay [2] is T2, CNOT7-FKBP12(F36V) fusion protein (Homo sapiens, UniProt Q9UIV1).
T2 construct: expressed in transfected cells; host or cells: H1299 cells; anti-HA immunoprecipitation, HA-peptide elution
T2 sequence (Q9UIV1 with tags, fused parts or gaps): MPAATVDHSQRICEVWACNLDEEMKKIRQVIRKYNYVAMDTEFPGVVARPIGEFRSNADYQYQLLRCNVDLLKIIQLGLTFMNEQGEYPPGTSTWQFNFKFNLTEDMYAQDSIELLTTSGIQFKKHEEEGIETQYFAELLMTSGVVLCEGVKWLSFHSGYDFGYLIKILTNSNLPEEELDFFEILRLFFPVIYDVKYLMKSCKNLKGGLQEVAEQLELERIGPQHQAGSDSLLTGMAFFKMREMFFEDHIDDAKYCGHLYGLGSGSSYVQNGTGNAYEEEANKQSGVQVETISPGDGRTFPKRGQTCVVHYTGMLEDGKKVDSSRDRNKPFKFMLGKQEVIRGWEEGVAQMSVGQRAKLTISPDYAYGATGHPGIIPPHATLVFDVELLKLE
Briefly: Biochemical gel assay: degradation/deadenylation of RNA substrate with immunoprecipitated CNOT7-FKBP12(F36V). The arrangement: key to Activity by gel: +: an activity observed as compared to DMSO control; −: no activity observed as compared to DMSO control. The settings on record: for Activity by gel: Table 8, degradation of RNA, compared to DMSO control. From the text:
Biochemical reporter systems were generated to evaluate the ability of CNOT7 binding compounds to accelerate the degradation of RNA by CNOT7. […] Generation of the target RNA was described in the previous experiment. […] The bifunctional molecules consist of Compound 1-4 and the following rSM:
which binds to the RNA sequence of AST-X, or the rSM linked to a tag that binds CNOT7-FKBPV. Specifically, the tag is compound AP1867 (CAS NO.: 195514-23-9), a known binder of FKBPV, resulting in the rSM-AP1867tag. The CNOT7-FKBPV is obtained by immunoprecipitation of cell engineered to express CNOT-FKBPV. Specifically, H1299 cells were transfected with plasmid expressing HA-tagged CNOT7-FKBP12(F36V) fusion protein. After 24 hours, cells were pelleted and lysed in the following lysis buffer: 20 mM HEPES pH 7.3, 0.2 mM EGTA, 10% glycerol, 0.1 mM DTT with cOmplete EDTA-free protease inhibitors (Millipore). After freeze-thawing, NaCl was added to a concentration of 400 mM and lysates were pelleted to clear cellular debris. Cleared lysate was adjusted to buffer conditions containing 0.1% NP-40 and 150 mM NaCl before being applied to Pierce Anti-HA magnetic beads (ThermoFisher) at 4° C. for 2-20 hours with end-over-end rotation. After washing, bound protein was competitively eluted with 2 mg/mL HA peptide (ThermoFisher) in activity assay buffer at 4° C. for 2-20 hours. It should be appreciated that this immunoprecipitation protocol will result in tagged CNOT7 that will likely have other components of the CCR4-NOT complex bound as well.
The reactions were incubated at 37° C., with specified timepoints removed from the reaction and combined with 2× formamide RNA loading buffer with 10 mM EDTA before boiling for 3 minutes to quench the reaction. Samples were run on a pre-warmed 15% TBE-Urea polyacrylamide gel at 180V for 90 minutes and then imaged using Cy2 settings on the Azure Biosystems 600 Imaging System. […] It should be noted that the CCR4-NOT complex includes proteins other than CNOT7, for instance CNOT6, that have deadenylation and/or exonuclease activity.
These findings were confirmed in the biochemical assay described above. […] In contrast, literature compounds that are active site binders, compounds A, B and C, structure depicted on the right-hand side, do interfere with the ability of CNOT7 to degrade RNA (See center panel of gel).
Heterobifunctional molecules were generated by conjugating the rSM depicted above, which binds RNA with an AST-X sequence, to AP1867 (a small molecule binder of FKBP12(F36V)), resulting in rSM-AP1867tag. In addition, I-243 was conjugated to the rSM resulting in compounds 1-329 and I-371, depicted in FIG. 17. Fluorescently labeled RNA substrates were refolded in the presence of Mg^2+ and incubated 10, 25, or 50 μM doses of heterobifunctional molecules for 30 minutes at room temperature before the enzymatic reaction was initiated with the elution fraction (containing CNOT7-FKBP12(F36V) fusion protein) from the immunoprecipitation protocol above. The reactions were incubated at 37° C., with specified timepoints removed from the reaction and combined with 2× formamide RNA loading buffer with 10 mM EDTA before boiling for 3 minutes to quench the reaction. Samples were run on a pre-warmed 15% TBE-Urea polyacrylamide gel at 180V for 120 minutes and then imaged using Cy2 settings on the Azure Biosystems 600 Imaging System (See FIGS. 18, 19A and 19B). In addition, for 1-371 and the control rSM-AP1867tag, the disappearance of the full-length substrate band was quantified using ImageJ and plotted over time (FIG. 19B).

Where [3] appears, read: dissociation constant by SPR, Table 7.

T1 sequence (Q9UIV1 whole entry): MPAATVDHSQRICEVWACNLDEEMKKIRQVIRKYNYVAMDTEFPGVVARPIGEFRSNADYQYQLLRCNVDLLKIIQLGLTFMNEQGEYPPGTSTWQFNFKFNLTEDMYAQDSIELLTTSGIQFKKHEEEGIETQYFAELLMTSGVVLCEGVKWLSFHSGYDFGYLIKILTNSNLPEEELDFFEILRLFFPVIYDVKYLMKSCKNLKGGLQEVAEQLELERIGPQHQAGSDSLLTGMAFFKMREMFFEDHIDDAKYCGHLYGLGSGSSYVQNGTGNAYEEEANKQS

Regarding `COc1ccc(C(C)NC(=O)C(COCCOCCOCCc2cn(COc3ccc(NC(=O)Nc4nc(CC(=O)N5CCN(C)CC5)cs4)cc3)nn2)Sc2nc(=O)[nH]cc2C)c(F)c1` (centres unmarked) [Compound I-329], the Kd is 1 to 25 µM in assay [1] (Table 6, dissociation constant for CNOT7 by SPR) and 1 to 25 µM in assay [1] (setting [3]). The Activity by gel entry in assay [2] is given as “−”. The “relative potency in biochemical assay” value in assay [2] (bait conjugated to rSM (Example 17, FIG. 18)) is “more potent”.
In assay [1] (setting [3]), `COc1ccc2c(c1)C[C@@H](COCCOCCOCCOCc1cn(CCOc3ccc(NC(=O)Nc4nc(CC(=O)N5CCN(C)CC5)cs4)cc3)nn1)N(C(=O)CSc1nc(=O)[nH]cc1C)C2` [Compound I-338] showed a Kd of more than 25 µM. Further, the Activity by gel result in assay [2] was “−”.
For `COc1ccc2c(c1)C[C@H](COCCOCCOCCOCc1cn(CCOc3ccc(NC(=O)Nc4nc(CC(=O)N5CCN(C)CC5)cs4)cc3)nn1)N(C(=O)CSc1nc(=O)[nH]cc1C)C2` [Compound I-339], in that order: more than 25 µM and “+”.
Turning to `COc1ccc([C@@H](C)NC(=O)[C@@H](COCCOCCOCc2cn(CCOc3ccc(NC(=O)Nc4nc(CC(=O)N5CCN(C)CC5)cs4)cc3)nn2)Sc2nc(=O)[nH]cc2Cl)c(F)c1` [Compound I-372], the Kd in assay [1] (setting [3]) lay within 1 to 25 µM. For the same molecule, the Activity by gel entry in assay [2] was “+”.
For `COc1ccc([C@@H](C)NC(=O)[C@H](COCCOCCOCc2cn(CCOc3ccc(NC(=O)Nc4nc(CC(=O)N5CCN(C)CC5)cs4)cc3)nn2)Sc2nc(=O)[nH]cc2Cl)c(F)c1` [Compound I-373], in that order: more than 25 µM and “+”.
Consider `COc1ccc(C(C)NC(=O)C(CCOCCOCCOCCn2cc(CCc3ccc(NC(=O)Nc4nc(CC(=O)N5CCN(C)CC5)cs4)cc3)nn2)Sc2nc(=O)[nH]cc2C)c(F)c1` (centres unmarked) [Compound I-382], for which the Activity by gel entry in assay [2] was “+”.
In assay [1] (setting [3]), `COc1ccc(C(C)NC(=O)C(CCOCCOCCOCCn2cc(COCCOCCOc3ccc(NC(=O)Nc4nc(CC(=O)N5CCN(C)CC5)cs4)cc3)nn2)Sc2nc(=O)[nH]cc2Cl)c(F)c1` (centres unmarked) [Compound I-395] gave a Kd of 1 to 25 µM. Also, in assay [2], the Activity by gel result is “+ (weak)”.
In the case of `COc1ccc([C@@H](C)NC(=O)[C@H](CCOCCOCCOCCn2cc(COCCOCCOCCOCCOc3ccc(NC(=O)Nc4nc(CC(=O)N5CCN(C)CC5)cs4)cc3)nn2)Sc2nc(=O)[nH]cc2Cl)c(F)c1` [Compound I-398], in assay [2], the Activity by gel result was “−”.
With `COc1ccc2c(c1)CC(COCCOCCOCCOCc1cn(CCOc3ccc(NC(=O)Nc4nc(CC(=O)N5CCN(C)CC5)cs4)cc3)nn1)N(C(=O)CSc1nc(=O)[nH]cc1C)C2` (centres unmarked) [Compound I-451], in assay [1] (setting [3]), the Kd is more than 25 µM. Besides, in assay [2], the Activity by gel result is recorded as “−”.
For `COc1ccc(CNC(=O)[C@H](COCCOCCOCCn2cc(COCCOCCOc3ccc(NC(=O)Nc4nc(CC(=O)N5CCN(C)CC5)cs4)cc3)nn2)Sc2nc(=O)[nH]cc2C)cc1` [Compound I-469] the same measures were 1 to 25 µM and “−”.
For `COc1ccc(CNC(=O)[C@@H](COCCOCCOCCn2cc(COCCOCCOc3ccc(NC(=O)Nc4nc(CC(=O)N5CCN(C)CC5)cs4)cc3)nn2)Sc2nc(=O)[nH]cc2C)c(F)c1` [Compound I-473], in that order: 1 to 25 µM and “−”.
`COc1ccc(CNC(=O)[C@H](COCCOCCOCCn2cc(COCCOCCOc3ccc(NC(=O)Nc4nc(CC(=O)N5CCN(C)CC5)cs4)cc3)nn2)Sc2nc(=O)[nH]cc2C)c(F)c1` [Compound I-474] yielded an equilibrium dissociation constant (Kd) in assay [1] (setting [3]) of 1 to 25 µM. In assay [2], the Activity by gel result is “−”.
For `COc1ccc(CNC(=O)[C@@H](COCCOCCOCCn2cc(COCCOCCOCCOCCOc3ccc(NC(=O)Nc4nc(CC(=O)N5CCN(C)CC5)cs4)cc3)nn2)Sc2nc(=O)[nH]cc2C)cc1` [Compound I-475] the same measures were 1 to 25 µM and “−”.
As for `COc1ccc(CNC(=O)[C@H](COCCOCCOCCn2cc(COCCOCCOCCOCCOc3ccc(NC(=O)Nc4nc(CC(=O)N5CCN(C)CC5)cs4)cc3)nn2)Sc2nc(=O)[nH]cc2C)cc1` [Compound I-476], the dissociation constant (Kd) in assay [1] (setting [3]) lay in the range of 1 to 25 µM. The Activity by gel entry in assay [2] was “−”.
For `COc1ccc(CNC(=O)[C@H](COCCOCCOCCn2cc(COCCOCCOCCOCCOc3ccc(NC(=O)Nc4nc(CC(=O)N5CCN(C)CC5)cs4)cc3)nn2)Sc2nc(=O)[nH]cc2C)c(F)c1` [Compound I-478] the same measures were 1 to 25 µM and “+”.
For `COc1ccc2c(c1)C[C@@H](COCCOCCOCCOCCn1cc(COCCOCCOc3ccc(NC(=O)Nc4nc(CC(=O)N5CCN(C)CC5)cs4)cc3)nn1)C(C(=O)CSc1nc(=O)[nH]cc1C)C2` (some centres unmarked) [Compound I-495], in that order: more than 25 µM and “−”.
Molecule `COc1ccc2c(c1)C[C@@H](COCCOCCOCCOCCn1cc(COCCOCCOCCOCCOc3ccc(NC(=O)Nc4nc(CC(=O)N5CCN(C)CC5)cs4)cc3)nn1)N(C(=O)CSc1nc(=O)[nH]cc1C)C2` [Compound I-497] gave a Kd in assay [1] (setting [3]) of more than 25 µM. Also, the Activity by gel entry in assay [2] is “+ (weak)”.
`COc1ccc([C@@H](C)NC(=O)[C@H](CCC(=O)N(C)Cc2cn(CCOc3ccc(NC(=O)Nc4nc(CC(=O)N5CCN(C)CC5)cs4)cc3)nn2)Sc2nc(=O)[nH]cc2C)c(F)c1` [Compound I-505]: the Activity by gel result in assay [2] is recorded as “−”.
Still for that read-out and setting: with `COc1ccc([C@@H](C)NC(=O)[C@@H](CCC(=O)N(C)Cc2cn(CCOc3ccc(NC(=O)Nc4nc(CC(=O)N5CCN(C)CC5)cs4)cc3)nn2)Sc2nc(=O)[nH]cc2C)c(F)c1` [Compound I-506] the entry was “−”; with `COc1ccc(C(C)NC(=O)C(CCC(=O)N(C)c2cccc(OCCOc3ccc(NC(=O)Nc4nc(CC(=O)N5CCN(C)CC5)cs4)cc3)c2)Sc2nc(=O)[nH]cc2C)c(F)c1` (centres unmarked) [Compound I-515], “−”.
Turning to `Cc1c[nH]c(=O)nc1SCC(=O)NCc1ccc(OCCOCCOCCOCCn2cc(COc3ccc(NC(=O)Nc4nc(CC(=O)N5CCN(C)CC5)cs4)cc3)nn2)cc1` [Compound I-533], the Activity by gel entry in assay [2] is reported as “−”.
